Assay results taken from PMC7053711, “A G protein–coupled receptor mediates neuropeptide-induced oocyte maturation in the jellyfish Clytia” (PLoS Biology, 2020).
Peptide text beside a SMILES is read from it.

Test system: fully grown oocytes isolated from MIHR mutant (n5-23) gonads
Assay: Oocyte maturation assay, MIHR mutant isolated oocytes (GVBD)
Type: cell-based, Clytia hemisphaerica
Conditions: for Oocyte maturation (number) / Percentage of Oocytes maturing: 0,1uM WPRPa, MIH R K.O.
Excerpt: Fig 4 Oocyte maturation failure in MIHR mutant medusae. Oocyte maturation assays performed using isolated gonads (A, B) or isolated oocytes (C) from MIHR mutant jellyfish compared to WT. In A and C, bar heights represent mean percentages of 3 independent experiments and error bars show standard deviations. Total gonad or oocyte numbers for each treatment are indicated in gray. (A) Spawning response of isolated gonads from WT and n5-23 female medusae. Three treatments were compared as indicated above each panel: Light: light stimulation after incubation in the dark; MIH: treatment of light-maintained gonads with 100 nM WPRPamide; cAMP: treatment of light-maintained gonads with 4 mM Br-cAMP. […] Full datasets from three independent experiments are available in S3 Data. (B) Light microscope images illustrating gonads from an equivalent experiment performed with n5-13 female MIHR mutant medusae 120 minutes after the indicated treatments. Scale bar: 500 μm. […] Full datasets from 3 independent experiments are available in S3 Data. Br-cAMP, bromoadenosine 3′,5′-cyclic monophosphate; cAMP, cyclic adenosine monophosphate; KO, knockout; MIH, maturation-inducing hormone; MIHR, MIH receptor; WT, wild-type.
Fully grown oocytes were isolated manually from dissected gonads of wild-type and MIHR KO mutant jellyfish prepared as above. Maturation assays were performed in wells of 96-well plates or small plastic petri dishes lined with 2% agarose in MFSW. Spontaneous maturation occurs at a low frequency in control oocytes. To test MIH-induced maturation, 10 μL WPRPamide from 1 μM solution in MFSW was added to a final concentration of 100 nM. In some experiments, Br-cAMP from a 20 mM stock in H2O was used at a final concentration of 4 mM. GVBD was scored at 30 minutes, every 5 minutes, depending on experiments.
Supplementary file pbio.3000614.s013.xlsx: S3 Data Numerical data corresponding to Fig 4A and 4C. The first tab collects all the raw data from 3 independent gonad spawning assays. Information corresponding to the Fisher exact tests is also shown. […] The means and standard deviations were used to prepare the graph in Fig 4C. Information corresponding to the Fisher exact tests is also shown. (XLSX) Click here for additional data file.

[1] = WPRPa, pooled n=46, Fisher exact test vs WT significant at p < .01

With `N=C(N)NCCC[C@H](NC(=O)[C@@H]1CCCN1C(=O)[C@@H](N)Cc1c[nH]c2ccccc12)C(=O)N1CCC[C@H]1C(N)=O` [WPRPa] (H-WPRP-NH2; N-terminus assumed) the “Oocyte maturation (number)” value (replicate 1, total 14) was 1, the “Percentage of Oocytes maturing” value (replicate 1, total 14) was 7.14 and the “Oocyte maturation (number)” value (replicate 2, total 11) was 0. The “Percentage of Oocytes maturing” value (replicate 2, total 11) was 0.00, the “Oocyte maturation (number)” value (replicate 3, total 21.00) was 2 and the “Percentage of Oocytes maturing” value (replicate 3, total 21.00) was 9.52. For the same compound, the “Maturing oocytes, MIHR KO YES” value [1] was 3 and the “Non-maturing oocytes, MIHR KO NO” value [1] was 43.
